In patent publication US12037324B2, “Biarylmethyl heterocycles” (Université de Montréal, priority 2016, dated 2024):

What was measured:
Assay type in all cases: cell-based
[1] = molecular target: T1, AGTR1 (Homo sapiens, UniProt P30556); test: DiscoveRx β-arrestin2 recruitment assay (enzyme complementation, Pathunter CHO-K1 AGTR1 β-arrestin cell line); conditions: DiscoveRx β-arrestin2 recruitment; for DiscoveRx β-arrestin2 Ymax (%): maximal response
T1 construct: host or cells: Pathunter CHO-K1 AGTR1 β-arrestin cell line (CHO-K1)
T1 sequence (P30556 1-359): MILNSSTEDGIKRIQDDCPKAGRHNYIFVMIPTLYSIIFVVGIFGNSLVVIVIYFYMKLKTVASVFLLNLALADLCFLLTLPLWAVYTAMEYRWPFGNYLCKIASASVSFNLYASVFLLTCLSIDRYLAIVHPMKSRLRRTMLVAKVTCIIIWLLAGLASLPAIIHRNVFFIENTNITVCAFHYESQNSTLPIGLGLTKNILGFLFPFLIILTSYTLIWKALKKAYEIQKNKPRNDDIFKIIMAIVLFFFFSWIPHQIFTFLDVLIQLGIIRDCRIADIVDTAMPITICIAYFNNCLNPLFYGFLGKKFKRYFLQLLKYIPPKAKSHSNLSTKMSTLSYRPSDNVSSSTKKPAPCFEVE
Procedure, shortened: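 CHO-K1 cells expressing AGTR1 with β-arrestin2 enzyme-complementation reporter, plated 14-16 h ahead in 1% serum medium, then exposed to compounds for 90 min at 37° C. Chemiluminescence read after 1 h detection. EC50 (agonist) or IC50 (antagonist) from 4-parameter logistic fit; activity as percentage of All maximal effect.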

[2] = molecular target: T2, hAT1R (Homo sapiens, UniProt P30556); test: BRET β-arrestin2 biosensor assay, higher receptor expression (hAT1R 5 ng/well), HEK293 cells; conditions: for EC50: High AT1R Expression
T2 sequence (P30556 1-359): T1 sequence (P30556 1-359)

[3] = molecular target: T2, hAT1R; test: BRET Gq biosensor assay, agonist response, HEK293 cells; conditions: section of the 42nd table directly before the BRET P63 section
Procedure, shortened: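 HEK293 cells co-transfected with signal-peptide-optimized hAT1R plus Gαq-Rluc, Gβ1 and GFP-Gγ1, assayed 48 h later in Tyrode's buffer pH 7.4. Coelenterazine (2 μM final) added, then compound; BRET2 (515/410 nm) read after 5 min at room temperature. EC50 by 4-parameter fit, normalized to unstimulated (0%) and maximal AngII (100%).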

CCCCc1nc(Cl)c(C(=O)N(C)C)n1Cc1ccc(-c2cc(-c3ccccc3)ccc2-c2nn[nH]n2)cc1 [Example 381, 1-((6′-(2H-tetrazol-5-yl)-[1,1′:3′,1″-terphenyl]-4-yl)methyl)-2-butyl-4-chloro-N,N-dimethyl-1H-imidazole-5-carboxamide]
EC50 [1]: 344 nM | DiscoveRx β-arrestin2 Ymax (%) [1]: 37.4% | BRET β-Arrestin2 High AT1R Expression Ymax (%) [2]: 73.9% | EC50 [2]: 828 nM | EC50 [3]: 2110 nM

CCCCc1ncc(C(=O)NC)n1Cc1ccc(-c2cc(-c3ccccc3)ccc2-c2nn[nH]n2)cc1 [Example 382]
EC50 [1]: 13.2 nM | DiscoveRx β-arrestin2 Ymax (%) [1]: 27.6% | BRET β-Arrestin2 High AT1R Expression Ymax (%) [2]: 67.5% | EC50 [2]: 47.1 nM | EC50 [3]: > 100000 nM

CCCCc1ncc(C(=O)N(C)C)n1Cc1ccc(-c2cc(-c3ccccc3)ccc2-c2nn[nH]n2)cc1 [Example 383, 1-((6′-(2H-tetrazol-5-yl)-[1,1′:3′,1″-terphenyl]-4-yl)methyl)-2-butyl-N,N-dimethyl-1H-imidazole-5-carboxamide]
EC50 [1]: 70.4 nM | DiscoveRx β-arrestin2 Ymax (%) [1]: 22.8% | BRET β-Arrestin2 High AT1R Expression Ymax (%) [2]: 66.3% | EC50 [2]: 309 nM | EC50 [3]: 7740 nM

CCCCc1nc(Cl)c(C(=O)O)n1Cc1ccc(-c2cc(-c3cncc(OC)c3)ccc2-c2nn[nH]n2)cc1 [Example 385]
EC50 [1]: 31.4 nM | DiscoveRx β-arrestin2 Ymax (%) [1]: 35.4% | BRET β-Arrestin2 High AT1R Expression Ymax (%) [2]: 87.0% | EC50 [2]: 57.1 nM | EC50 [3]: 1110 nM

CCCCc1nc(Cl)c(C(=O)O)n1Cc1ccc(-c2cc(-c3cnn(C4CC4)c3)ccc2-c2nn[nH]n2)cc1 [Example 386]
EC50 [1]: 8.4 nM | DiscoveRx β-arrestin2 Ymax (%) [1]: 27.3% | BRET β-Arrestin2 High AT1R Expression Ymax (%) [2]: 66.7% | EC50 [2]: 45.2 nM | EC50 [3]: 59100 nM

CCCCc1nc(Cl)c(C(=O)O)n1Cc1ccc(-c2cc(-c3cnn(C(F)F)c3)ccc2-c2nn[nH]n2)cc1 [Example 387]
EC50 [1]: 16.6 nM | DiscoveRx β-arrestin2 Ymax (%) [1]: 32.8% | BRET β-Arrestin2 High AT1R Expression Ymax (%) [2]: 81.9% | EC50 [2]: 18.2 nM | EC50 [3]: 3420 nM

CCCCc1nc(Cl)c(C(=O)O)n1Cc1ccc(-c2cc(-c3cnn(C)c3)ccc2-c2nn[nH]n2)cc1 [Example 389]
EC50 [1]: 91.8 nM | DiscoveRx β-arrestin2 Ymax (%) [1]: 26.7% | BRET β-Arrestin2 High AT1R Expression Ymax (%) [2]: 35.3% | EC50 [2]: 189 nM | EC50 [3]: 2020 nM

CCCCc1nc(Cl)c(C(N)=O)n1Cc1ccc(-c2cc(-c3ccccc3)ccc2-c2nn[nH]n2)cc1 [Example 393, 1-((6′-(2H-tetrazol-5-yl)-[1,1′:3′,1″-terphenyl]-4-yl)methyl)-2-butyl-4-chloro-1H-imidazole-5-carboxamide]
EC50 [1]: 9.1 nM | DiscoveRx β-arrestin2 Ymax (%) [1]: 41.2% | BRET β-Arrestin2 High AT1R Expression Ymax (%) [2]: 86.1% | EC50 [2]: 12 nM | EC50 [3]: 48.8 nM

CCCCc1nc(Cl)c(C(N)=O)n1Cc1ccc(-c2cc(-c3ccccc3)ccc2-c2noc(=O)[nH]2)cc1 [Example 394]
EC50 [1]: 365 nM | DiscoveRx β-arrestin2 Ymax (%) [1]: 59.1% | BRET β-Arrestin2 High AT1R Expression Ymax (%) [2]: 94.9% | EC50 [2]: 37.3 nM | EC50 [3]: 76.4 nM

CCCc1nc(CC)c(C(=O)OCC)n1Cc1ccc(-c2cc(-c3ccccc3)ccc2-c2nn[nH]n2)cc1 [Example 395, ethyl 1-((6′-(2H-tetrazol-5-yl)-[1,1′:3′,1″-terphenyl]-4-yl)methyl)-4-ethyl-2-propyl-1H-imidazole-5-carboxylate]
EC50 [1]: 16.1 nM | DiscoveRx β-arrestin2 Ymax (%) [1]: 54.1% | BRET β-Arrestin2 High AT1R Expression Ymax (%) [2]: 92.4% | EC50 [2]: 20.4 nM | EC50 [3]: 12.7 nM

CCCc1nc(CC)c(C(=O)NCC(F)(F)F)n1Cc1ccc(-c2cc(-c3ccccc3)ccc2-c2nn[nH]n2)cc1 [Example 397, 1-((6′-(2H-tetrazol-5-yl)-[1,1′:3′,1″-terphenyl]-4-yl)methyl)-4-ethyl-2-propyl-N-(2,2,2-trifluoroethyl)-1H-imidazole-5-carboxamide]
EC50 [1]: 78.2 nM | DiscoveRx β-arrestin2 Ymax (%) [1]: 46.5% | BRET β-Arrestin2 High AT1R Expression Ymax (%) [2]: 87.9% | EC50 [2]: 80.9 nM | EC50 [3]: 124 nM

CCCc1nc(CC)c(C(N)=O)n1Cc1ccc(-c2cc(-c3ccccc3)ccc2-c2nn[nH]n2)cc1 [Example 398, 1-((6′-(2H-tetrazol-5-yl)-[1,1′:3′,1″-terphenyl]-4-yl)methyl)-4-ethyl-2-propyl-1H-imidazole-5-carboxamide]
EC50 [1]: 12.7 nM | DiscoveRx β-arrestin2 Ymax (%) [1]: 53.6% | BRET β-Arrestin2 High AT1R Expression Ymax (%) [2]: 91.0% | EC50 [2]: 13.4 nM | EC50 [3]: 35.1 nM

CCCc1nc(CC)c(C(=O)O)n1Cc1ccc(-c2cc(-c3ccccc3)ccc2-c2noc(=O)[nH]2)cc1 [Example 399]
EC50 [1]: 13.4 nM | DiscoveRx β-arrestin2 Ymax (%) [1]: 45.8% | BRET β-Arrestin2 High AT1R Expression Ymax (%) [2]: 92.1% | EC50 [2]: 7.2 nM | EC50 [3]: 1170 nM

CCCc1nc(CC)c(C(=O)O)n1Cc1ccc(-c2cc(-c3ccccc3)ccc2C(=O)O)cc1 [Example 400, 1-((6′-carboxy-[1,1′:3′,1″-terphenyl]-4-yl)methyl)-4-ethyl-2-propyl-1H-imidazole-5-carboxylic acid]
EC50 [1]: 150 nM | DiscoveRx β-arrestin2 Ymax (%) [1]: 40.4% | BRET β-Arrestin2 High AT1R Expression Ymax (%) [2]: 88.3% | EC50 [2]: 172 nM | EC50 [3]: 892 nM

CCCc1nc(C(C)(C)O)c(C(=O)OCC)n1Cc1ccc(-c2cc(-c3ccccc3)ccc2-c2nn[nH]n2)cc1 [Example 401, ethyl 1-((6′-(2H-tetrazol-5-yl)-[1,1′:3′,1″-terphenyl]-4-yl)methyl)-4-(2-hydroxypropan-2-yl)-2-propyl-1H-imidazole-5-carboxylate]
EC50 [1]: 544 nM | DiscoveRx β-arrestin2 Ymax (%) [1]: 43.7% | BRET β-Arrestin2 High AT1R Expression Ymax (%) [2]: 74.5% | EC50 [2]: 256 nM | EC50 [3]: 2240 nM

CCCc1nc(C(C)(C)O)c(C(=O)O)n1Cc1ccc(-c2cc(-c3ccccc3)ccc2-c2nn[nH]n2)cc1 [Example 402, sodium 1-((6′-(2H-tetrazol-5-yl)-[1,1′:3′,1″-terphenyl]-4-yl)methyl)-4-(2-hydroxypropan-2-yl)-2-propyl-1H-imidazole-5-carboxylate]
EC50 [1]: 9.9 nM | DiscoveRx β-arrestin2 Ymax (%) [1]: 57.0% | BRET β-Arrestin2 High AT1R Expression Ymax (%) [2]: 77.8% | EC50 [2]: 17.9 nM | EC50 [3]: 64.9 nM

CCCc1nc(C(C)(C)O)c(C(=O)[O-])n1Cc1ccc(-c2cc(-c3ccccc3)ccc2-c2noc(=O)[nH]2)cc1.[Na+] [Example 403, 4-(2-hydroxypropan-2-yl)-1-((6′-(5-oxo-4,5-dihydro-1,2,4-oxadiazol-3-yl)-[1,1′:3′,1″-terphenyl]-4-yl)methyl)-2-propyl-1H-imidazole-5-carboxylic acid, Na+]
EC50 [1]: 14.2 nM | DiscoveRx β-arrestin2 Ymax (%) [1]: 61.4% | BRET β-Arrestin2 High AT1R Expression Ymax (%) [2]: 88.6% | EC50 [2]: 9.2 nM | EC50 [3]: 70.9 nM

CCCCc1nc(Cl)c(C(=O)O)n1Cc1ccc(-c2cc(N3CC(C)(C)c4ccccc43)ccc2-c2noc(=O)[nH]2)cc1 [Example 405, 2-butyl-4-chloro-1-((5′-(3,3-dimethylindolin-1-yl)-2′-(5-oxo-4,5-dihydro-1,2,4-oxadiazol-3-yl)-[1,1′-biphenyl]-4-yl)methyl)-1H-imidazole-5-carboxylic acid]
EC50 [1]: 57.5 nM | DiscoveRx β-arrestin2 Ymax (%) [1]: 32.8% | BRET β-Arrestin2 High AT1R Expression Ymax (%) [2]: 95.8% | EC50 [2]: 42 nM | EC50 [3]: 492 nM
